From ChEMBL document CHEMBL3046948, “Synthesis and SAR investigation of natural phenylpropene-derived methoxylated cinnamaldehydes and their novel Schiff bases as potent antimicrobial and antioxidant agents” (2013)
In brackets after ≈: the same amount, converted by molar mass. Activity calls are given as the source filed them. No cut-off for these calls is given here.

What was measured:
Assay type in all cases: functional
Aspergillus sydowii = test: Antimicrobial activity against Aspergillus sydowii MTCC 4335 assessed as growth inhibition after 5 days by broth microdilution method
Aspergillus parasiticus = test: Antimicrobial activity against Aspergillus parasiticus MTCC 2797 assessed as growth inhibition after 5 days by broth microdilution method
Aspergillus niger = test: Antimicrobial activity against Aspergillus niger MTCC 404 assessed as growth inhibition after 5 days by broth microdilution method
Pichia kudriavzevii = test: Antimicrobial activity against Pichia kudriavzevii MTCC 231 assessed as growth inhibition after 24 hr by broth microdilution method
Candida albicans = test: Antimicrobial activity against Candida albicans MTCC 3017 assessed as growth inhibition after 24 hr by broth microdilution method
Enterobacter cloacae = test: Antimicrobial activity against Enterobacter cloacae MTCC 509 assessed as growth inhibition after 24 hr by broth microdilution method
Pseudomonas aeruginosa = test: Antimicrobial activity against Pseudomonas aeruginosa MTCC 424 assessed as growth inhibition after 24 hr by broth microdilution method
Klebsiella pneumoniae = test: Antimicrobial activity against Klebsiella pneumoniae MTCC 109 assessed as growth inhibition after 24 hr by broth microdilution method
Escherichia coli = test: Antimicrobial activity against Escherichia coli MTCC 43 assessed as growth inhibition after 24 hr by broth microdilution method
Burkholderia cepacia = test: Antimicrobial activity against Burkholderia cepacia MTCC 438 assessed as growth inhibition after 24 hr by broth microdilution method
Micrococcus luteus = test: Antimicrobial activity against Micrococcus luteus MTCC 2470 assessed as growth inhibition after 24 hr by broth microdilution method
Bacillus subtilis = test: Antimicrobial activity against Bacillus subtilis MTCC 121 assessed as growth inhibition after 24 hr by broth microdilution method
Staphylococcus aureus = test: Antimicrobial activity against Staphylococcus aureus MTCC 3160 assessed as growth inhibition after 24 hr by broth microdilution method
[1] = system: Radical scavenging activity; test: Antioxidant activity assessed as inhibition of DPPH radical formation at 2 mg/ml after 30 min by spectrophotometric analysis
Trichophyton rubrum = test: Antimicrobial activity against Trichophyton rubrum MTCC 296 assessed as growth inhibition after 5 days by broth microdilution method

MIC (Aspergillus sydowii; MTCC 4335, 120 h)	MIC (Aspergillus parasiticus; MTCC 2797, 120 h)	MIC (Pichia kudriavzevii; MTCC 231, 24 h)	MIC (Candida albicans; MTCC 3017, 24 h)	MIC (Burkholderia cepacia; MTCC 438, 24 h)	MIC (Micrococcus luteus; MTCC 2470, 24 h)	MIC (Bacillus subtilis; MTCC 121, 24 h)	MIC (Staphylococcus aureus; MTCC 3160, 24 h)	MIC (Trichophyton rubrum; MTCC 296, 120 h)	MIC (Aspergillus sydowii)	MIC (Aspergillus parasiticus)	MIC (Aspergillus niger)	MIC (Enterobacter cloacae)	MIC (Pseudomonas aeruginosa)	MIC (Klebsiella pneumoniae)	MIC (Escherichia coli)	MIC (Burkholderia cepacia)	MIC (Micrococcus luteus)	MIC (Bacillus subtilis)	Compound	inhibition [1]	also measured
1990 µM (≈ 500 µg/mL)	1990 µM (≈ 500 µg/mL)	490 µM (≈ 123 µg/mL)	990 µM (≈ 249 µg/mL)	490 µM (≈ 123 µg/mL)	990 µM (≈ 249 µg/mL)	1990 µM (≈ 500 µg/mL)	1990 µM (≈ 500 µg/mL)	990 µM (≈ 249 µg/mL)	–	–	–	–	–	–	–	–	–	–	C(=C\c1ccc2c(c1)OCO2)/C=N/c1ccccc1	25.8%	MIC (Aspergillus niger; MTCC 404, 120 h): 990 µM (≈ 249 µg/mL); MIC (Enterobacter cloacae; MTCC 509, 24 h): 990 µM (≈ 249 µg/mL); MIC (Pseudomonas aeruginosa; MTCC 424, 24 h): 250 µM (≈ 62.8 µg/mL); MIC (Klebsiella pneumoniae; MTCC 109, 24 h): 990 µM (≈ 249 µg/mL); MIC (Escherichia coli; MTCC 43, 24 h): 1990 µM (≈ 500 µg/mL)
–	–	–	–	–	–	–	–	–	inactive	inactive	inactive	inactive	inactive	inactive	inactive	inactive	inactive	inactive	NC(=S)N/N=C/C=C/c1ccc2c(c1)OCO2	10.7%	MIC (Pichia kudriavzevii): inactive; MIC (Candida albicans): inactive; MIC (Staphylococcus aureus): inactive; MIC (Trichophyton rubrum): inactive
–	–	8570 µM (≈ 2000 µg/mL)	8570 µM (≈ 2000 µg/mL)	–	–	–	–	8570 µM (≈ 2000 µg/mL)	inactive	inactive	inactive	inactive	inactive	inactive	inactive	inactive	inactive	inactive	NC(=O)N/N=C/C=C/c1ccc2c(c1)OCO2	2.37%	MIC (Staphylococcus aureus): inactive
–	–	730 µM (≈ 250 µg/mL)	730 µM (≈ 250 µg/mL)	730 µM (≈ 250 µg/mL)	730 µM (≈ 250 µg/mL)	730 µM (≈ 250 µg/mL)	730 µM (≈ 250 µg/mL)	730 µM (≈ 250 µg/mL)	inactive	inactive	inactive	inactive	inactive	inactive	inactive	–	–	–	Clc1ccc2nc(/N=C/C=C/c3ccc4c(c3)OCO4)sc2c1	80.7%	–
710 µM (≈ 250 µg/mL)	710 µM (≈ 250 µg/mL)	1420 µM (≈ 500 µg/mL)	1420 µM (≈ 500 µg/mL)	1420 µM (≈ 500 µg/mL)	710 µM (≈ 250 µg/mL)	1420 µM (≈ 500 µg/mL)	710 µM (≈ 250 µg/mL)	1420 µM (≈ 500 µg/mL)	–	–	inactive	inactive	inactive	inactive	inactive	–	–	–	CCOc1ccc2nc(/N=C/C=C/c3ccc4c(c3)OCO4)sc2c1	0.24%	–
–	–	770 µM (≈ 248 µg/mL)	770 µM (≈ 248 µg/mL)	770 µM (≈ 248 µg/mL)	770 µM (≈ 248 µg/mL)	770 µM (≈ 248 µg/mL)	380 µM (≈ 123 µg/mL)	770 µM (≈ 248 µg/mL)	inactive	inactive	inactive	–	inactive	inactive	inactive	–	–	–	Cc1ccc2nc(/N=C/C=C/c3ccc4c(c3)OCO4)sc2c1	3.19%	MIC (Enterobacter cloacae; MTCC 509, 24 h): 770 µM (≈ 248 µg/mL)
1900 µM (≈ 502 µg/mL)	1900 µM (≈ 502 µg/mL)	470 µM (≈ 124 µg/mL)	470 µM (≈ 124 µg/mL)	470 µM (≈ 124 µg/mL)	1900 µM (≈ 502 µg/mL)	3780 µM (≈ 999 µg/mL)	1900 µM (≈ 502 µg/mL)	470 µM (≈ 124 µg/mL)	–	–	–	–	–	–	–	–	–	–	C(=C\c1nc2ccccc2[nH]1)/c1ccc2c(c1)OCO2	32.6%	MIC (Aspergillus niger; MTCC 404, 120 h): 950 µM (≈ 251 µg/mL); MIC (Enterobacter cloacae; MTCC 509, 24 h): 950 µM (≈ 251 µg/mL); MIC (Pseudomonas aeruginosa; MTCC 424, 24 h): 10 µM (≈ 2.64 µg/mL); MIC (Klebsiella pneumoniae; MTCC 109, 24 h): 1900 µM (≈ 502 µg/mL); MIC (Escherichia coli; MTCC 43, 24 h): 1900 µM (≈ 502 µg/mL)
3210 µM (≈ 999 µg/mL)	1600 µM (≈ 498 µg/mL)	–	–	–	–	–	–	–	–	–	inactive	inactive	inactive	inactive	inactive	inactive	inactive	inactive	COc1ccc(/N=C/C=C/c2ccc3c(c2)OCO3)cc1OC	15.4%	MIC (Pichia kudriavzevii): inactive; MIC (Candida albicans): inactive; MIC (Staphylococcus aureus): inactive; MIC (Trichophyton rubrum): inactive

Compound	MIC (Aspergillus sydowii; MTCC 4335, 120 h)	MIC (Aspergillus parasiticus; MTCC 2797, 120 h)	MIC (Pichia kudriavzevii; MTCC 231, 24 h)	MIC (Candida albicans; MTCC 3017, 24 h)	MIC (Burkholderia cepacia; MTCC 438, 24 h)	MIC (Micrococcus luteus; MTCC 2470, 24 h)	MIC (Bacillus subtilis; MTCC 121, 24 h)	MIC (Staphylococcus aureus; MTCC 3160, 24 h)	MIC (Trichophyton rubrum; MTCC 296, 120 h)	MIC (Aspergillus sydowii)	MIC (Aspergillus parasiticus)	MIC (Aspergillus niger)	MIC (Enterobacter cloacae)	MIC (Pseudomonas aeruginosa)	MIC (Klebsiella pneumoniae)	MIC (Escherichia coli)	MIC (Burkholderia cepacia)	MIC (Micrococcus luteus)	MIC (Bacillus subtilis)	inhibition [1]	also measured
C/C=C/c1ccc(OC)cc1 [ANETHOLE]	–	–	6740 µM (≈ 999 µg/mL)	6740 µM (≈ 999 µg/mL)	–	–	–	–	–	inactive	inactive	inactive	inactive	inactive	inactive	inactive	inactive	inactive	inactive	–	MIC (Staphylococcus aureus): inactive; MIC (Trichophyton rubrum): inactive
